The target in one assay is T1, Adenosine receptor A2b (Homo sapiens, UniProt P29275).
T1 sequence (P29275 whole entry): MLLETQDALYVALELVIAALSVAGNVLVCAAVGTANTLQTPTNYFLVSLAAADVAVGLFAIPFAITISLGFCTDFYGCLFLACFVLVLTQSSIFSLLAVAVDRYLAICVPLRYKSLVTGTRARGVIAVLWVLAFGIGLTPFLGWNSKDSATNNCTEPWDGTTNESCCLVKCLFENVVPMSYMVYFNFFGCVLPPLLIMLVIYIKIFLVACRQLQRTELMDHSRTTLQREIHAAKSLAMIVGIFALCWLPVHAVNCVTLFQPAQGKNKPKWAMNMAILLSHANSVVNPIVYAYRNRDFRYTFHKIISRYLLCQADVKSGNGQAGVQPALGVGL
In words: Binding affinity to recombinant human adenosine A2B receptor expressed in HEK293 cell membrane incubated for 15 to 30 mins by Topcount scintillation counter assay. Format: cell membranes.

A further assay concerns the target Adenosine receptor A2a (Homo sapiens, UniProt P29274). In words: Displacement of [3H]-SCH58261 from recombinant human adenosine A2A receptor expressed in HEK293 cell membrane incubated for 15 to 30 mins by Topcount scintillation counter assay. In kind it is cell membranes. In general terms: Displacement assays read how much labelled ligand stays bound in the presence of the test substance.

The values below come from ChEMBL document CHEMBL5370695, “Novel Adenosine Receptor Antagonists for Treating Cancer and Immune-Related Disorders” (ACS Med Chem Lett, 2023).

Sequence of Adenosine receptor A2a (P29274 whole entry): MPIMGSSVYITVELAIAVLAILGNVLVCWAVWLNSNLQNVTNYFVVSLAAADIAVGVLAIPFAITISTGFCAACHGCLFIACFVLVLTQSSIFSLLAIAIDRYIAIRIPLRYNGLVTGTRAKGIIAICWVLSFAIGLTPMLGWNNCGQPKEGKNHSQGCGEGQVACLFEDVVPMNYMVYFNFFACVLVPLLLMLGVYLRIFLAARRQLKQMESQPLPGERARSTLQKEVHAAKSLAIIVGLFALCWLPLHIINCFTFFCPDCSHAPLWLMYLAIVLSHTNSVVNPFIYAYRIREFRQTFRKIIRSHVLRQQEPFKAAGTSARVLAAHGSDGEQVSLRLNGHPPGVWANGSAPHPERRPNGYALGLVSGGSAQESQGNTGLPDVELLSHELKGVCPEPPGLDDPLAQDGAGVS

For the compound `COc1cccc2c1nc(N)n1nc([C@H]3C[C@H](c4ncc(C(C)(C)N)cc4C)C3)nc21`, the IC50 (commonly the midpoint of a concentration-inhibition curve) at Adenosine receptor A2b was 1.6 nM.

Consider `COc1cccc2c1nc(N)n1nc(C3CC3c3ccc4c(c3)CCNC4)nc21` (stereo unspecified), for which the IC50 was found to be 3.1 nM on Adenosine receptor A2b and 1.1 nM at Adenosine receptor A2a.

`COc1cccc2c1nc(N)n1nc([C@H]3C[C@H](c4ccc(C(C)(C)O)cn4)C3)nc21`: the IC50 on Adenosine receptor A2b was found to be 3.3 nM.

For the compound `COc1cccc2c1nc(N)n1nc([C@H]3C[C@H](c4ncc(C(C)(C)N)cc4Cl)C3)nc21`, the values for the concentration for half-maximal inhibition (IC50) at Adenosine receptor A2b and on Adenosine receptor A2a were 2.7 nM and 0.8 nM, respectively.
